Marks after values point to notes of the source that are not given here.
Columns and labels:
[1] = tested on: isolated feline ventricular myocytes; conditions: 25 μM, soon after exposure
Ca+2 current (ICa-L) = assay: L-type Ca2+ current recording in isolated ventricular myocytes (patch clamp); type: cell-based, cat
Protocol: The latter process was performed three times.
Patch-clamp current and voltage recordings were made with the ruptured patch whole-cell configuration at 36-37° C. (14). For studies on L-type Ca^2+ currents, cells were bathed with modified Tyrode's containing (in mM): 157 TEA-Cl, 5 CaCl2, 0.5 MgCl2, and 10 HEPES. Electrode internal solution contained (in mM): 10 L-Glutamic Acid, 20 CsCl, 10 EGTA, 1 MgCl2, 1 CaCl2, 20 HEPES, and 5 ATP-Mg2; pH adjusted with CsOH. In all of the studies, electrode resistance was measured to be 2-3.5 MΩ. The reference zero potential was adjusted in the bath before forming seals. Recordings were performed with an Axon Instruments 200B amplifier (Axon Instruments, Culver City, Calif. USA) interfacing a DigiData 1200 DA/AD acquisition system. Ionic currents were evoked by depolarizing voltage step (1 sec-long) from −30 to +60 mV, in 10-mV increments, from a holding potential of −40 mV delivered at the frequency of 1 Hz. Action potentials were elicited at a frequency of 1 Hz by injection of brief depolarizing current pulses. Software used in data acquisition and analysis was pClamp v.6.04 and Origin v 5.0 (Microcal Software, Northampton, Mass.).

[2] = tested on: Adult human kidney proximal tubular (HK-2) cells; conditions: HK-2 cells cultured for 0-20 hr; necrotic form of cell death; cited from earlier work
[3] = tested on: open chest rats in the absence of myocardial ischemia; assay: Hemodynamic parameters in open chest rats in the absence of myocardial ischemia (first test procedure); type: in vivo, rat; conditions: for +dP/dt / Heart Rate / Mean BP / LVPdev: percent change from pre-drug baseline 15 minutes after drug administration
Protocol: Male Sprague-Dawley rats weighing 505±5 g were anesthetized with sodium pentobarbital (50 mg/kg I.P.). An endotracheal tube was secured in place and connected to a small-animal respirator (Harvard Apparatus, Model 683, South Natick, Mass.) set on 100 breaths/min, with a tidal volume of 2-3 mnL/breath. Body temperature was maintained using a heating pad with circulating warm water (K-model 100, Baxter Laboratories). A left thoracotomy was performed, the heart exposed and the pericardium removed. Left ventricular pressure was measured using a saline-filled polyethylene catheter attached to an angiocatheter (20 Gauge) inserted through the apex of the heart and connected to a P23 ID Statham/Gould pressure transducer. Arterial pressure was monitored via a saline-filled polyethylene catheter (PE 50) introduced into the left carotid artery. The right jugular vein was also cannulated with a polyethylene catheter (PE 50) for IV drug infusions and volume repletion (0.9% NaCl). Subcutaneous needles were positioned in the limbs for ECG recordings. […]

[4] = tested on: open chest rats undergoing myocardial ischemia/reperfusion; assay: Survival of open chest rats undergoing myocardial ischemia/reperfusion (second test procedure); type: in vivo, rat; conditions: for percent survival: 3 mg/kg iv
TNF = assay: Serum TNF (ELISA) in open chest rats undergoing myocardial ischemia; type: in vivo, rat; conditions: for serum concentration of TNF: mean ± sem
Protocol: Male Sprague-Dawley rats weighing 505±5 g were anesthetized with sodium pentobarbital (50 mg/kg I.P.). An endotracheal tube was secured in place and connected to a small-animal respirator (Harvard Apparatus, Model 683, South Natick, Mass.) set on 100 breaths/min, with a tidal volume of 2-3 mnL/breath. Body temperature was maintained using a heating pad with circulating warm water (K-model 100, Baxter Laboratories). A left thoracotomy was performed, the heart exposed and the pericardium removed. Left ventricular pressure was measured using a saline-filled polyethylene catheter attached to an angiocatheter (20 Gauge) inserted through the apex of the heart and connected to a P23 ID Statham/Gould pressure transducer. Arterial pressure was monitored via a saline-filled polyethylene catheter (PE 50) introduced into the left carotid artery. The right jugular vein was also cannulated with a polyethylene catheter (PE 50) for IV drug infusions and volume repletion (0.9% NaCl). Subcutaneous needles were positioned in the limbs for ECG recordings.
(§1) In the second test procedure, the main coronary artery of rats undergoing coronary occlusion was located and occluded close to its origin using a 5-0 suture passed underneath the vessel that could be tightened over a short section of PE tubing (PE 20) to initiate regional ischemia. Reperfusion was reinstated by removing the short segment of PE tubing.
Blood samples were collected in syringes in the absence of any anticoagulant and immediately placed in Microtainer® serum separator tubes (Becton Dickinson) and centrifuged at 2000 g for 6 minutes. The serum was removed, frozen immediately, and stored at −20° C. until the analysis could be performed. The concentration of serum TNF collected at preselected time points was determined for individual rats by enzyme-linked immunosorbent assay (ELISA), utilizing the Factor-Test-X (Genzyme Inc, Cambridge, Mass., Cat #80-3905-01) according to the manufacturer's instructions. Briefly, 100 μL of serum was diluted 1:2 in 0.1% bovine serum albumin/phosphate buffered saline and added in duplicate to a 96-well microtiter plate. A standard curve was generated by plotting the concentrations of rat TNF standards versus their absorbances. […] The detection limit of this assay was 10 pg/mL. Additionally, the manufacturer has determined that this ELISA is highly specific for rat TNF.

[5] = tested on: open chest rats undergoing myocardial ischemia/reperfusion; assay: Determination of infarct size (TTC staining); type: in vivo, rat; conditions: 3 mg/kg i.v.
Protocol: as §1
The heart was removed and sliced in five to six coronal sections, which were immersed in 1% triphenyltetrazolium chloride (TTC) for 10-15 minutes. The heart sections were removed, blotted dry and traced onto acetate sheets. The areas of infarction were clearly demarcated by a pale appearance in the ischemic zone, and a brick red color of non-infarcted myocardium. The areas of all sections were determined by planimetric methods and infarct area was expressed as a percentage of the left ventricle.

[6] = 1.0 mg/kg iv (second dose, after 0.3 mg/kg iv)
[7] = following infusion (0.1+0.3 mg/kg)
[8] = 0.1 mg/kg iv (first dose), mean ± sem
[9] = 0.3 mg/kg iv (second dose, after 0.1 mg/kg iv)

For CCCCCCCCCCCCC/C=C/[C@@H](O)[C@@H](N)CO [Sphingosine], which “myocardial cell death (morphology, lack of viability)” value [1] is on record?
The value was “lead to myocardial cell death”.

What about the “block of ICa-L” value (Ca+2 current (ICa-L); 2.5 μM) of the same compound?
Its value is 17±7%.

What about the “block of ICa-L” value (Ca+2 current (ICa-L); 25 μM) of the same compound?
The value was 75±4%.

What about the “concentration inducing rapid, concentration-dependent cytotoxicity” value [2] of the same compound?
The value was at least 10 µM.

And the “+dP/dt” value ([3]; 0.3 mg/kg iv (first dose))?
Its value is −33 ± 12%.

And the “Heart Rate” value ([3]; 0.3 mg/kg iv (first dose))?
The value was −4 ± 4%.

And the “Mean BP” value ([3]; 0.3 mg/kg iv (first dose))?
The value was −24 ± 12%.

What about the “+dP/dt” value [3, 6] of the same compound?
Its value is −32 ± 18%.

What about the “Heart Rate” value [3, 6] of the same compound?
The value was −18 ± 1%.

What about the LVPdev [3, 6] of the same compound?
The LVPdev was −24 ± 14%.

And the “Mean BP” value [3, 6]?
The value was −17 ± 19%.

What about the “+dP/dt reduced from baseline” value [3, 7] of the same compound?
The value was 33±12%.

What about the “LVP depressed from baseline” value [3, 7] of the same compound?
Its value is 24±8%.

With Etanercept as the compound, how does the “mortality resulting from myocardial ischemia/reperfusion” value ([4]; 3 mg/kg i.v. administered immediately before occlusion) read?
Its value is “significantly reduced mortality”.

What about the rats dead ([4]; 3 mg/kg i.v., t=90 minutes of reperfusion) of the same compound?
The rats dead was 1 out of 9.

And the percent survival ([4]; 0 min (end of ischemia))?
Its percent survival is 100%.

And the percent survival ([4]; 30 min reperfusion)?
Its percent survival is 100%.

What about the percent survival ([4]; 60 min reperfusion) of the same compound?
The percent survival was 100%.

And the percent survival ([4]; 90 min reperfusion)?
The percent survival was 89%.

And the percent survival ([4]; 120 min reperfusion)?
Its percent survival is 89* percent.

And the percent survival ([4]; 150 min reperfusion)?
Its percent survival is 88* percent.

And the percent survival ([4]; −30 min (baseline))?
Its percent survival is 100%.

What about the “serum concentration of TNF” value (TNF; 0 min (end of ischemia)) of the same compound?
The value was 2299 ± 357 pg/mL.

What about the “serum concentration of TNF” value (TNF; 30 min reperfusion) of the same compound?
The value was 2057 ± 349 pg/mL.

What about the “serum concentration of TNF” value (TNF; 60 min reperfusion) of the same compound?
The value was 1592 ± 258 pg/mL.

What about the “serum concentration of TNF” value (TNF; 90 min reperfusion) of the same compound?
The value was 1108 ± 279 pg/mL.

What about the “serum concentration of TNF” value (TNF; 120 min reperfusion) of the same compound?
The value was 721 ± 209 pg/mL.

What about the “serum concentration of TNF” value (TNF; 150 min reperfusion) of the same compound?
Its value is 580 ± 193 pg/mL.

What about the “effect on TNFα spike in concentration in response to vascular occlusion” value (TNF; at 0 minutes) of the same compound?
Its value is “significantly reduced”.

And the “serum concentration of TNF” value (TNF; −30 min (baseline))?
Its value is 0 ± 0 pg/mL.

What about the “Infarct size, expressed as a percentage of the left ventricle” value [5] of the same compound?
The value was 24±3%.

Which “+dP/dt” value [3, 8] does the source give for Sphingomyelin here?
The value was 1 ± 13%.

What about the “Heart Rate” value [3, 8] of the same compound?
The value was 7 ± 9%.

What about the LVPdev [3, 8] of the same compound?
Its LVPdev is 3 ± 11%.

What about the “Mean BP” value [3, 8] of the same compound?
The value was −3 ± 17%.

And the “+dP/dt” value [3, 9]?
The value was 6 ± 15%.

And the “Heart Rate” value [3, 9]?
Its value is 8 ± 10%.

And the LVPdev [3, 9]?
Its LVPdev is 4 ± 12%.

And the “Mean BP” value [3, 9]?
The value was 2 ± 2%.

Source: patent US20020150582A1, “Method of treating or inhibiting cellular injury or cell death” (priority 2001, published 2002)
